According to ChEMBL document CHEMBL1127824, “6,6-Disubstituted Hex-5-enoic acid derivatives as combined thromboxane A2 receptor antagonists and synthetase inhibitors” (J Med Chem, 1994):
Where “and” joins values, the source holds several entries; their conditions need not be identical. Equal entries are not always repeated.

How the values were obtained:
Thromboxane A2 receptor = target: T1, Thromboxane A2 receptor (Homo sapiens, UniProt P21731)
T1 sequence (P21731 whole entry): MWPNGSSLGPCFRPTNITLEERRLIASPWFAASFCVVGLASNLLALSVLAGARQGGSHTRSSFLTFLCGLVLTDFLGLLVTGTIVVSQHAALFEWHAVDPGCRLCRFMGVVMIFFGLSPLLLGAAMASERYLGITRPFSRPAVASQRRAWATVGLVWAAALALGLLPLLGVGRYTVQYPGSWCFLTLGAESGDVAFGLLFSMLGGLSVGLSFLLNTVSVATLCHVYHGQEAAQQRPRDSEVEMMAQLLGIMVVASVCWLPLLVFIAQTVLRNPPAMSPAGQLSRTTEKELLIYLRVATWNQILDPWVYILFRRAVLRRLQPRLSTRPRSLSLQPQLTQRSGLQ

Thromboxane-A synthase = target: T2, Thromboxane-A synthase (Homo sapiens, UniProt P24557)
T2 sequence (P24557 whole entry): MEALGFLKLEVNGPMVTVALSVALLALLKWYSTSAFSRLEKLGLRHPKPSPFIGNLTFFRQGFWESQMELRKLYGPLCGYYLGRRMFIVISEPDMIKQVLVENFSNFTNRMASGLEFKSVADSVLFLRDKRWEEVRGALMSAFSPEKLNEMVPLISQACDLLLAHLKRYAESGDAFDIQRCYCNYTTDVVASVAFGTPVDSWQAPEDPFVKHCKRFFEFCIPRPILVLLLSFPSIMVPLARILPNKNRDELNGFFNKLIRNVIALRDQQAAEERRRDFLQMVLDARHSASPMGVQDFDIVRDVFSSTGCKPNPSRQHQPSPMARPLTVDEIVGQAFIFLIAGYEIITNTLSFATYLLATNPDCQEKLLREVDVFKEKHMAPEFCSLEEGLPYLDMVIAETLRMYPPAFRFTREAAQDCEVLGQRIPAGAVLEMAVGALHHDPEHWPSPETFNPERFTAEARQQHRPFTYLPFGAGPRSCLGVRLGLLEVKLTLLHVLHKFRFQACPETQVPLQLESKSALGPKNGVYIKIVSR
Description: Inhibition test of thromboxane A2 synthetase in human gel-filtered platelets.

Homo sapiens = species on record: Homo sapiens; test: tissue or blood; format: functional, organism-based; conditions: Plasma
Description: Inhibition of collagen-induced platelet aggregation in human platelet-rich plasma.

Row | SMILES | IC50 (Thromboxane A2 receptor) | IC50 (Thromboxane-A synthase) | EC50 (Homo sapiens)
1 | COC(=O)CCC/C=C(\c1ccc(CCNS(=O)(=O)c2ccc(Cl)cc2)cc1)c1cccnc1 | 36 nM | 33 nM | 11000 nM
2 | O=C(O)CCCC(c1ccc(CCNS(=O)(=O)c2ccc(Cl)cc2)cc1)c1cccnc1 (stereo not drawn) | 74 nM | 98 nM | 12000 nM
3 | O=C(O)CCC/C=C(\c1ccc(CCN(CCN2CCOCC2)S(=O)(=O)c2ccc(Cl)cc2)cc1)c1cccnc1 | 58 nM | 4 nM | 21000 nM
4 | O=C(O)CC/C=C(\c1ccc(CCNS(=O)(=O)c2ccc(Cl)cc2)cc1)c1cccnc1 | 42 nM | 21 nM | 36000 nM
5 | CNC(=O)CCC/C=C(\c1ccc(CCNS(=O)(=O)c2ccc(Cl)cc2)cc1)c1cccnc1 | 170 nM | 250 nM | 24000 nM
6 | O=C(O)c1ccc(/C=C(\c2ccc(CCNS(=O)(=O)c3ccc(Cl)cc3)cc2)c2cccnc2)cc1 | 130 nM | 27 nM | 52000 nM
7 | O=C(O)CCCCO/N=C(/c1cccnc1)c1cccc(C(F)(F)F)c1 [RIDOGREL] | 1700 nM and 5200 nM | 4 nM and 8 nM | 16000 nM
8 | Cc1ccc(S(=O)(=O)NCCc2ccc(/C(=C\C(=O)O)c3cccnc3)cc2)cc1 | 1200 nM | 2700 nM | > 100000 nM
9 | CC(C)N(CCc1ccc(/C(=C\CCCC(=O)O)c2cccnc2)cc1)S(=O)(=O)c1ccc(Cl)cc1 | 51 nM | 25 nM | > 100000 nM
10 | O=C(O)CCC/C=C(/c1ccc(CCNS(=O)(=O)c2ccc(Cl)cc2)cc1)c1cccnc1 | 380 nM | 490 nM | 43000 nM
11 | O=C(O)C/C=C(\c1ccc(CCNS(=O)(=O)c2ccc(Cl)cc2)cc1)c1cccnc1 | 12 nM | 1000 nM | 37000 nM
12 | O=C(O)CCC/C=C(\c1ccc(CCN(CCC(=O)O)S(=O)(=O)c2ccc(Cl)cc2)cc1)c1cccnc1 | 120 nM | 100 nM | > 100000 nM
13 | O=C(O)CCC/C=C(\c1ccc(CCNS(=O)(=O)c2ccc(Cl)cc2)cc1)c1cccnc1 [SAMIXOGREL] | 19 nM | 4 nM | 1000 nM
14 | O=C(O)CCC/C=C(\c1ccc(CCN(Cc2ccc(C(=O)O)cc2)S(=O)(=O)c2ccc(Cl)cc2)cc1)c1cccnc1 | 28 nM | 46 nM | > 100000 nM
15 | COc1ccc(S(=O)(=O)NCCc2ccc(/C(=C\CCCC(=O)O)c3cccnc3)cc2)cc1OC | 340 nM | 5 nM | 16000 nM
16 | CCN(CCc1ccc(/C(=C\CCCC(=O)O)c2cccnc2)cc1)S(=O)(=O)c1ccc(Cl)cc1 | 33 nM | 4 nM | 13000 nM
17 | NC(=O)CCC/C=C(\c1ccc(CCNS(=O)(=O)c2ccc(Cl)cc2)cc1)c1cccnc1 | 94 nM | 39 nM | 28000 nM

Row | SMILES | IC50 (Thromboxane A2 receptor) | IC50 (Thromboxane-A synthase) | EC50 (Homo sapiens)
18 | CC(C)(C)OC(=O)CCC/C=C(\c1ccc(CCNS(=O)(=O)c2ccc(Cl)cc2)cc1)c1cccnc1 | 200 nM | 150 nM | 60000 nM
19 | O=C(O)CCC/C=C(/c1cccnc1)c1cccc(NS(=O)(=O)c2ccc(Cl)cc2)c1 | 60 nM | 7 nM | 40000 nM
20 | COc1ccc(S(=O)(=O)NCCc2ccc(/C(=C\CCCC(=O)O)c3cccnc3)cc2)cc1 | 52 nM | 5 nM | 10000 nM
21 | O=C(O)CCC/C=C(\CCCNS(=O)(=O)c1ccc(Cl)cc1)c1cccnc1 | 330 nM | 24 nM | 47000 nM
22 | Cc1ccc(S(=O)(=O)NCCc2ccc(/C(=C\C(=O)NCC(=O)O)c3cccnc3)cc2)cc1 | 3000 nM | 15000 nM | > 100000 nM
23 | CN(CCc1ccc(/C(=C\CCCC(=O)O)c2cccnc2)cc1)S(=O)(=O)c1ccc(Cl)cc1 | 25 nM | 15 nM | 24000 nM
24 | Cc1cc(C)c(S(=O)(=O)NCCc2ccc(/C(=C\CCCC(=O)O)c3cccnc3)cc2)c(C)c1 | 42 nM | 19 nM | 30000 nM
25 | O=C(O)c1cccc(/C=C(\c2ccc(CCNS(=O)(=O)c3ccc(Cl)cc3)cc2)c2cccnc2)c1 | 100 nM | 4 nM | 30000 nM
26 | O=C(O)CCC/C=C(\c1ccc(CCNC(=O)Cc2ccccc2)cc1)c1cccnc1 | 1200 nM | 21 nM | 9500 nM
27 | O=S(=O)(NCCc1ccc(/C(=C\CCCc2nnn[nH]2)c2cccnc2)cc1)c1ccc(Cl)cc1 | 12 nM | 21 nM | 9500 nM
28 | O=C(O)CCC/C=C(\c1ccc(NS(=O)(=O)c2ccc(Cl)cc2)cc1)c1cccnc1 | 270 nM | 5 nM | > 100000 nM
29 | CN(C)C(=O)CCC/C=C(\c1ccc(CCNS(=O)(=O)c2ccc(Cl)cc2)cc1)c1cccnc1 | 300 nM | 44 nM | 40000 nM
30 | O=C(O)CCC/C=C(\c1ccc(CCN(CC(=O)O)S(=O)(=O)c2ccc(Cl)cc2)cc1)c1cccnc1 | 61 nM | 310 nM | 44000 nM
31 | O=C(O)CCC/C=C(\c1ccc(CCNC(=O)c2ccc(Cl)cc2)cc1)c1cccnc1 | 210 nM | 43 nM | 55000 nM
32 | O=C(O)CCC/C=C(\c1ccc(CCNS(=O)(=O)c2ccc(Cl)cc2)cc1)c1ccc[n+]([O-])c1 | 1100 nM | 45000 nM | > 100000 nM
33 | O=C(O)CCC/C=C(\c1ccc(CCN(Cc2ccccc2)S(=O)(=O)c2ccc(Cl)cc2)cc1)c1cccnc1 | 62 nM | 43 nM | 11000 nM

Second part, the compound after the results:

Row | IC50 (Thromboxane A2 receptor) | IC50 (Thromboxane-A synthase) | EC50 (Homo sapiens) | SMILES
34 | 12 nM | 4 nM | 1700 nM | O=C(O)CCC/C=C(/c1cccnc1)c1cccc(CCNS(=O)(=O)c2ccc(Cl)cc2)c1
35 | 13 nM | 8 nM | 5000 nM | O=C(O)CCC/C=C(/c1cccnc1)c1ccc2c(c1)CCC(NS(=O)(=O)c1ccc(Cl)cc1)C2 (stereo not drawn)
36 | 230 nM | 4 nM | 1100 nM | Cn1c(CCNS(=O)(=O)c2ccc(F)cc2)ccc1/C(=C\CCCC(=O)O)c1cccnc1
37 | 66 nM | 4 nM | 3100 nM | O=C(O)CCC/C=C(\c1ccc(CCNS(=O)(=O)c2ccc(F)cc2)cc1)c1cccnc1
38 | 26 nM | 60 nM | 4300 nM | O=C(O)CCO/N=C(\c1ccc(CCNS(=O)(=O)c2ccc(Cl)cc2)cc1)c1cccnc1
39 | 21 nM | 5 nM | 3800 nM | O=C(O)CCC/C=C(/c1cccnc1)c1cccc(CNS(=O)(=O)c2ccc(Cl)cc2)c1
40 | 81 nM | 5 nM | 3400 nM | O=C(O)CCC/C=C(\c1ccc(CCNS(=O)(=O)c2ccccc2)cc1)c1cccnc1
41 | 19 nM | 24 nM | 1500 nM | O=C(O)CCCC/C=C(\c1ccc(CCNS(=O)(=O)c2ccc(Cl)cc2)cc1)c1cccnc1
42 | 55 nM | 7 nM | 5000 nM | O=C(O)CCC/C=C(\c1ccc(CNS(=O)(=O)c2ccc(Cl)cc2)cc1)c1cccnc1
43 | 210 nM | 31 nM | 1200 nM | O=C(O)CCCCCC(c1ccc(CCNS(=O)(=O)c2ccc(Cl)cc2)cc1)c1cccnc1 (stereo not drawn)
44 | 84 nM | 2 nM | 1200 nM | O=C(O)CCCCC(c1ccc(CCNS(=O)(=O)c2ccc(Cl)cc2)cc1)c1cccnc1 (stereo not drawn)
45 | 49 nM | 5 nM | 9200 nM | NC(=O)CN(CCc1ccc(/C(=C\CCCC(=O)O)c2cccnc2)cc1)S(=O)(=O)c1ccc(Cl)cc1
46 | 6 nM | 6 nM and 4 nM | 5800 nM | O=C(O)CCC(CCCCNS(=O)(=O)c1ccc(Cl)cc1)CCCc1cccnc1 (stereo not drawn)
47 | 260 nM | 5 nM | 5300 nM | O=C(O)CCC/C=C(\c1ccc(CCNS(=O)(=O)Cc2ccccc2)cc1)c1cccnc1
48 | 9 nM | 1 nM | 560 nM | O=C(O)CCC/C=C(/c1cccnc1)c1ccc2c(c1)CC(NS(=O)(=O)c1ccc(F)cc1)C2 (stereo not drawn)
49 | 28 nM | 6 nM | 2800 nM | O=C(O)CCC/C=C(\c1ccc(CCNS(=O)(=O)c2ccc(C(F)(F)F)cc2)cc1)c1cccnc1
50 | 33 nM | 5 nM | 700 nM | Cc1ccc(S(=O)(=O)NCCc2ccc(/C(=C\CCCC(=O)O)c3cccnc3)cc2)cc1
51 | 1100 nM | 5 nM | 3400 nM | CCCCS(=O)(=O)NCCc1ccc(/C(=C\CCCC(=O)O)c2cccnc2)cc1
